The results in this text go back to ChEMBL document CHEMBL4715853 (J Med Chem, 2020).

Series [1] deals with SARS-CoV-2. The experiment in a line: Antiviral actvity against SARS-CoV2 infected in human assessed as latency time to cough relief at 1600 mg administered twice on day 1 and 600 mg BID for 7 days. It is filed as functional, Severe acute respiratory syndrome coronavirus 2. Conditions: time 7 day.
The test system of series [2] is SARS-CoV-2. The experiment in a line: Antiviral activity against 2019-nCoV BetaCoV/Wuhan/WIV04/2019 infected in African green monkey VeroE6 cells assessed as reduction in viral yield preincubated with virus for 1 hr followed by cell infection and […] by qRT-PCR method. It is filed as functional, organism-based. Conditions: Severe acute respiratory syndrome coronavirus 2, BetaCoV/Wuhan/WIV04/2019, Vero C1008.

Series [3] relates to SARS-CoV-2. Kind of series: Antiviral actvity against SARS-CoV2 infected in human assessed as latency time to pyrexia reduction at 1600 mg administered twice on day 1 and 600 mg BID for 7 days. The format is functional, Severe acute respiratory syndrome coronavirus 2. The conditions noted are these: time 7 day.
The nature of series [4]: Selectivity index, ratio of CC50 for African green monkey Vero E6 cells to EC50 for 2019-nCoV Beta CoV/Wuhan/WIV04/2019 infected in African green monkey Vero E6 cells. It is filed as toxicity, Vero C1008. Conditions: read-out: Ratio CC50/EC50.
Series [5] relates to Zaire ebolavirus. The experiment in a line: Antiviral activity against Zaire Ebola virus infected in African green monkey Vero E6 cells measured after 5 days by immunofocus assay. The format is functional, organism-based. Conditions: Vero C1008, 120 h.
Series [6] is described as follows: Cytotoxicity against African green monkey Vero E6 cells by the CCK8 assay. It is filed as cell-based, Vero C1008. Conditions: chlorocebus sabaeus.
Series [7] is described as follows: Toxicity in human infected with SARS-CoV2 assessed as adverse events at 1600 mg, po administered twice on day 1 and 600 mg BID on day 2 to 14 and measured after 14 days. It is filed as organism-based. The conditions noted are these: in vivo, 336 h, time 14 day.
Series [8] relates to SARS-CoV-2. The experiment in a line: Antiviral actvity against SARS-CoV2 infected in human assessed as improvement rate of chest at 1600 mg, po administered twice on day 1 and 600 mg BID on day 2 to 14 and measured after 14 days by computed tomography. The format is functional, Severe acute respiratory syndrome coronavirus 2. Conditions: time 14 day.
Series [9] has as its system Zaire ebolavirus. Kind of series: Antiviral activity against Zaire Ebola virus infected in IFNAR-/- C57BL/6 mouse assessed as mouse survival at 300 mg/kg, po administered twice daily starting from day 6 post infection until day 13 post infection and measured at the end of 3 weeks. It is filed as functional.
Series [10] can be described thus: Inhibition of SARS Coronavirus helicase pp1ab domain assessed as reduction in ATPase activity by phosphomolybdate-malachite green assay. Details: species or system Severe acute respiratory syndrome-related coronavirus.
Series [11] can be described thus: Inhibition of SARS Coronavirus helicase pp1ab domain assessed as reduction in helicase activity using DT20Cy3/Release BHQ oligomers by FRET-based assay. Details: species or system Severe acute respiratory syndrome-related coronavirus.
Series [12] is described as follows: Cytotoxicity against Rhesus macaque FRhK-4 cells by MTT assay. It is filed as cell-based, Macaca mulatta. Conditions: rhesus monkey.
The subject of series [13] is SARS-CoV. The experiment in a line: Antiviral actvity against SARS-CoV GZ50 infected in Rhesus macaque FRhK-4 cells assessed as reduction in virus-induced cytopathic effect incubated for 24 to 48 hrs by phase-contrast microscopy. It is filed as functional, organism-based. Conditions: Severe acute respiratory syndrome-related coronavirus, GZ50, FRhK-4.
Series [14] has as its system Human coronavirus OC43. The experiment in a line: Antiviral activity against wild type HCoV-OC43 infected in BHK-21 cells incubated for 72 hrs by RT-PCR method. The format is functional, cell-based. Conditions: Betacoronavirus 1, BHK-21, 72 h.
Series [15] in a line: Cytotoxicity against African green monkey Vero E6 cells by the MTS assay. It is filed as cell-based, Vero C1008. The conditions noted are these: chlorocebus sabaeus.
Series [16] deals with SARS-CoV. The experiment in a line: Antiviral activity against SARS-CoV isolate Frankfurt-1 infected in African green monkey Vero E6 cells incubated for 3 days by MTS assay. The format is functional, organism-based. The conditions noted are these: Severe acute respiratory syndrome-related coronavirus, Frankfurt 1, Vero C1008, 72 h.
A short description of series [17]: Cytotoxicity against human Huh-7 cells incubated for 1 hr by MTS assay. It is filed as cell-based.
A short description of series [18]: Cytotoxicity against African green monkey Vero E6 cells incubated for 3 days by the MTS assay. The conditions noted are these: chlorocebus sabaeus, time 3 day. The format is cell-based, Vero C1008.
The subject of series [19] is SARS-CoV. Kind of series: Antiviral activity against SARS-CoV isolate Frankfurt-1 infected in African green monkey Vero E6 cells incubated for 3 days. The format is functional, organism-based. The conditions noted are these: Severe acute respiratory syndrome-related coronavirus, Frankfurt 1, Vero C1008, 72 h.
In series [20] the test system is SARS-CoV-2. The experiment in a line: Antiviral actvity against SARS-CoV2 infected in human assessed as improvement rate of chest at 400 mg, po administered twice daily cotreated with 100 mg ritonavir and measured after 14 days by computed tomography. The format is functional, Severe acute respiratory syndrome coronavirus 2. Conditions: time 14 day.
Series [21] can be described thus: Toxicity in human infected with SARS-CoV2 assessed as adverse events at 400 mg, po administered twice daily cotreated with 100 mg ritonavir and measured after 14 days. It is filed as organism-based. The conditions noted are these: in vivo, 336 h, time 14 day.
Series [22] deals with Human coronavirus OC43. The experiment in a line: Antiviral activity against HCoV-OC43 infected in BALB/c mouse assessed as protection against virus-induced lethal infection at 15 mg/kg, ip administered for 14 days and measured up to 20 days. It is filed as functional. The conditions noted are these: time day <=20.
Series [23] is described as follows: in vitro. Conditions: rhesus monkey, LLC-MK2 cells.
Series [24] relates to SARS-CoV. Kind of series: Antiviral activity against SARS-CoV BJ-001 infected in African green monkey Vero E6 cells assessed as reduction in virus induced cytopathic effect incubated for 72 hrs by MTS/phenazine methosulfate method. Conditions: Severe acute respiratory syndrome-related coronavirus, BJ-001, Vero C1008, 72 h. It is filed as functional, organism-based.
Series [25] is described as follows: Cytotoxicity against African green monkey Vero E6 cells incubated for 72 hrs by MTS assay. The format is cell-based, Vero C1008. Conditions: chlorocebus sabaeus.
Series [26] is described as follows: Antiviral activity against HCoV-NL63 infected in Rhesus macaque LLC-MK2 cells incubated for 72 hrs by RT-PCR method. It is filed as functional, cell-based. Conditions: Human coronavirus NL63, LLC-MK2, 72 h.
Series [27] is described as follows: Selectivity ratio of CC50 for HAE cells to EC50 for SARS-CoV BJ-001 infected in African green monkey Vero E6 cells. The format is toxicity, Vero C1008.
Series [28] in a line: in vitro. The conditions noted are these: hamster, BHK-21 cells.
Series [29] concerns SARS-CoV. Kind of series: Antiviral activity against SARS-CoV BJ-001 infected in African green monkey Vero E6 cells assessed as reduction in virus induced cytopathic effect by visual observation. The conditions noted are these: Severe acute respiratory syndrome-related coronavirus, BJ-001, Vero C1008. It is filed as functional, organism-based.
The nature of series [30]: in vitro. The conditions noted are these: rhesus monkey, LLC-MK2 cells. The source holds these as a separate data set.
Series [31] can be described thus: in vitro. The conditions noted are these: hamster, BHK-21 cells. The source holds these as a separate data set.

Regarding `NC(=O)c1nc(F)cnc1O`, the Time in the series with SARS-CoV-2 [1] worked out at 1.75 days; in the series with SARS-CoV-2 [3], 1.7 days. Besides, the IC50 with SARS-CoV-2 [2] is 61.8 µM; in the series on Zaire ebolavirus [5], 67 µM. Also, the selectivity ratio in series [4] was greater than 6.46. In addition, the CC50 in [6] is greater than 400 µM. Moreover, the values for the Activity (in series [7]; with SARS-CoV-2 [8]; in the series with Zaire ebolavirus [9]) were 11.4%, 91.4% and 100%, respectively.

As for `Cc1ncc(CO)c(C23OC4(O)CC(O)(CC(O)(C4)O2)O3)c1O`, the IC50 amounted to 2.3 µM in series [10] and 3 µM in series [11]. In [12], this compound showed a CC50 of 390 µM. Besides, the EC50 with SARS-CoV [13] is less than 10 µM.

`CCN(CC)CCCC(C)Nc1ccnc2cc(Cl)ccc12` (stereo unspecified) [CHLOROQUINE]: the results for the EC50 in the series with Human coronavirus OC43 [14], in the series on SARS-CoV-2 [2] and in the series on SARS-CoV [19] were 0.33 µM, 1.13 µM and 4.1 µM, respectively. Moreover, the CC50 in [15] is 261 µM; in series [6], greater than 100 µM. In the series on SARS-CoV [16], this compound came in with an IC50 of 8.8 µM. In series [17], this compound gave a CC50 at 1 h greater than 50 µM. In series [18], this compound displayed a CC50 at 72 h greater than 128 µM.

Regarding `Cc1cccc(C)c1OCC(=O)N[C@@H](Cc1ccccc1)[C@@H](O)C[C@H](Cc1ccccc1)NC(=O)[C@H](C(C)C)N1CCCNC1=O` [LOPINAVIR], the Activity in the series with SARS-CoV-2 [20] came out at 62.2%; in series [21] it was 55.6%. Further, the CC50 at 1 h in series [17] is greater than 37.6 µM. The same compound returned a CC50 at 72 h in [18] greater than 32 µM.

Take `O[C@H]1[C@H]2c3cc4c(cc3CN3CCC(=C[C@@H]1O)[C@H]23)OCO4` [LYCORINE]: the EC50 was 0.15 µM in the series with Human coronavirus OC43 [14] and 0.47 µM in series [26]. In the series with Human coronavirus OC43 [22], the Activity is 83.3%. Besides, the selectivity ratio in the series “in vitro [23]” worked out at 8.11; in series [27] it was 954; in “in vitro [28]”, 29.1. For the same compound, the IC50 in the series with SARS-CoV [24] and in the series on SARS-CoV [29] was 0.0157 µM each time. Further, the CC50 at 72 h in [25] is 14.9 µM; in “in vitro [30]” it was 3.81 µM; in “in vitro [31]”, 4.37 µM.
